Source: the kinase profiling compilation of Christmann-Franck et al. (2016)

Key:
Experiment in all cases: radiometric filter-binding kinase assay
[1] = biological target: AURKA (human) (UniProt O14965)
[2] = biological target: EPHA2 (human) (UniProt P29317)
[3] = biological target: EPHB1 (human) (UniProt P54762)
[4] = biological target: EPHB3 (human) (UniProt P54753)
[5] = biological target: IKBKE (human) (UniProt Q14164)
[6] = biological target: INSR (human) (UniProt P06213)
[7] = biological target: MAP2K2 (human) (UniProt P36507)
[8] = biological target: MAP2K6 (human) (UniProt P52564)
[9] = biological target: MAP3K1 (human) (UniProt Q13233)
[10] = biological target: MAPK11 (human) (UniProt Q15759)
[11] = biological target: MAPK15 (human) (UniProt Q8TD08)
[12] = biological target: MAPK9 (human) (UniProt P45984)
[13] = biological target: MAPKAPK2 (human) (UniProt P49137)
[14] = biological target: MAPKAPK5 (human) (UniProt Q8IW41)
[15] = biological target: MARK4 (human) (UniProt Q96L34)
[16] = biological target: MST4 (human) (UniProt Q9P289)
[17] = biological target: MYLK (human) (UniProt Q15746)
[18] = biological target: NEK2 (human) (UniProt P51955)
[19] = biological target: PAK6 (human) (UniProt Q9NQU5)
[20] = biological target: PHKG1 (human) (UniProt Q16816)
[21] = biological target: PRKACA (human) (UniProt P17612)
[22] = biological target: PRKCZ (human) (UniProt Q05513)
[23] = biological target: RPS6KA1 KD1 KD2 (human) (UniProt Q15418)
[24] = biological target: RPS6KA5 KD1 KD2 (human) (UniProt O75582)
[25] = biological target: STK16 (human) (UniProt O75716)
[26] = biological target: SYK (human) (UniProt P43405)
[27] = biological target: TAOK1 (human) (UniProt Q7L7X3)
[28] = biological target: ZAP70 (human) (UniProt P43403)
ZAP70 (human), sequence (P43403 whole entry, looked up): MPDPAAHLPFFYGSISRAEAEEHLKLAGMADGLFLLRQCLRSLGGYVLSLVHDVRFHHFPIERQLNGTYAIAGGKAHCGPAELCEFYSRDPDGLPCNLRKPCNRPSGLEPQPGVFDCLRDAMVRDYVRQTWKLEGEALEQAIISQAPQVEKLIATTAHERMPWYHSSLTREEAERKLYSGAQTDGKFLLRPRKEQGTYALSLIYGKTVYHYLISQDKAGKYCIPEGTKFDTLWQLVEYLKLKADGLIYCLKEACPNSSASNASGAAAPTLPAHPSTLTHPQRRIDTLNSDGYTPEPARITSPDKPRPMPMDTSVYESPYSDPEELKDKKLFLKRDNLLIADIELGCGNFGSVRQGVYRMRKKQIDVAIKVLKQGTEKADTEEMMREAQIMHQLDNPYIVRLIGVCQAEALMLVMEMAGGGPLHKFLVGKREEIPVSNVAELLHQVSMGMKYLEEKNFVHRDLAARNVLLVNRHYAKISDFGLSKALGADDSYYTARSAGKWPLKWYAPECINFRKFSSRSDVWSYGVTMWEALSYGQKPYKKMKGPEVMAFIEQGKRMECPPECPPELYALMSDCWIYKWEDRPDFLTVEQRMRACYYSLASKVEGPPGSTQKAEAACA

MAPKAPK5 (human), sequence (Q8IW41 whole entry, looked up): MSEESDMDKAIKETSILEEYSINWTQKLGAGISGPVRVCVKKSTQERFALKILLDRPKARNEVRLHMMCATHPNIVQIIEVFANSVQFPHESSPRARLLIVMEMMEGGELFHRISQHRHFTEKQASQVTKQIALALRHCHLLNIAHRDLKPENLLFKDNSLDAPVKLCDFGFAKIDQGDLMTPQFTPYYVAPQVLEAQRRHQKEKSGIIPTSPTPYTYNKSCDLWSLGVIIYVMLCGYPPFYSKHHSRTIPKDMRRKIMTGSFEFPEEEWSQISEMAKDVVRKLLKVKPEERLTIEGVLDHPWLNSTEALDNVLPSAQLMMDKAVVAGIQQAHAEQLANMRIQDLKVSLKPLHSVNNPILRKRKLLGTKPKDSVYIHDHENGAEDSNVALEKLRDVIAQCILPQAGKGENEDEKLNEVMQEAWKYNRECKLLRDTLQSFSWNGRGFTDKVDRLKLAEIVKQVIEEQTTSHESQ
PRKCZ (human), sequence (Q05513 whole entry, looked up): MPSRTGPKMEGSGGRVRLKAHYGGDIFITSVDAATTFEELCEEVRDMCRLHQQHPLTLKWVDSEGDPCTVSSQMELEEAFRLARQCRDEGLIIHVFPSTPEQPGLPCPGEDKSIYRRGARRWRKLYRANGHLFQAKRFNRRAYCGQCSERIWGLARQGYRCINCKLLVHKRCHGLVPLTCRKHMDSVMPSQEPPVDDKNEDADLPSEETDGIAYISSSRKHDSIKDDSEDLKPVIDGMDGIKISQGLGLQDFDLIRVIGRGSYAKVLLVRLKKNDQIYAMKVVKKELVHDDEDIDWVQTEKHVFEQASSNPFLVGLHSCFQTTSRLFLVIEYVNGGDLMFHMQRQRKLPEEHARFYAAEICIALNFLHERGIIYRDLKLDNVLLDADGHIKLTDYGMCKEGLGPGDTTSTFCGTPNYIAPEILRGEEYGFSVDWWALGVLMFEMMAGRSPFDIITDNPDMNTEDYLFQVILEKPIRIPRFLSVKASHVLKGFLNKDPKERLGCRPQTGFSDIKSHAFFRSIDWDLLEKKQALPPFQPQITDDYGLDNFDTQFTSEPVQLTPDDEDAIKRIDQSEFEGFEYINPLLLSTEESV
MAPK11 (human), sequence (Q15759 whole entry, looked up): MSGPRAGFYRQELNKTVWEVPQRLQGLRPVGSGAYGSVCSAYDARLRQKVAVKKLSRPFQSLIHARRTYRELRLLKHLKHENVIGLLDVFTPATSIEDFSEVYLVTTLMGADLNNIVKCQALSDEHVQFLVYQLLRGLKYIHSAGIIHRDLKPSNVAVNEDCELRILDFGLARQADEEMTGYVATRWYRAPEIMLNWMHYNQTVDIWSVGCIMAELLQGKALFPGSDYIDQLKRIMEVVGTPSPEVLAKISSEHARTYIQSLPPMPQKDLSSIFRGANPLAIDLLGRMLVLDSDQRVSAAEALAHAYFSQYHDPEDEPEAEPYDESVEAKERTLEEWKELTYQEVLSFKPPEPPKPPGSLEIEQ
MST4 (human), sequence (Q9P289 whole entry, looked up): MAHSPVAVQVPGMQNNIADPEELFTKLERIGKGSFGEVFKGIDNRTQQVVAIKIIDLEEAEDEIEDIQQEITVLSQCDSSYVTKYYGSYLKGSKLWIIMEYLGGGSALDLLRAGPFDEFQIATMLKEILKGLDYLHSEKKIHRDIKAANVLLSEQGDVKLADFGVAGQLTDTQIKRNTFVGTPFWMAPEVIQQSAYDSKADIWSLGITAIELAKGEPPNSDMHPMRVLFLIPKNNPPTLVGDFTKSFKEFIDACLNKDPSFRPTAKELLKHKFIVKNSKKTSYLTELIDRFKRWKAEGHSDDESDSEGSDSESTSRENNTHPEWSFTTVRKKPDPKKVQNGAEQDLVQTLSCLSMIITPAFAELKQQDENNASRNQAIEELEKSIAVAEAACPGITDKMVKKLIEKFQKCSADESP
IKBKE (human), sequence (Q14164 whole entry, looked up): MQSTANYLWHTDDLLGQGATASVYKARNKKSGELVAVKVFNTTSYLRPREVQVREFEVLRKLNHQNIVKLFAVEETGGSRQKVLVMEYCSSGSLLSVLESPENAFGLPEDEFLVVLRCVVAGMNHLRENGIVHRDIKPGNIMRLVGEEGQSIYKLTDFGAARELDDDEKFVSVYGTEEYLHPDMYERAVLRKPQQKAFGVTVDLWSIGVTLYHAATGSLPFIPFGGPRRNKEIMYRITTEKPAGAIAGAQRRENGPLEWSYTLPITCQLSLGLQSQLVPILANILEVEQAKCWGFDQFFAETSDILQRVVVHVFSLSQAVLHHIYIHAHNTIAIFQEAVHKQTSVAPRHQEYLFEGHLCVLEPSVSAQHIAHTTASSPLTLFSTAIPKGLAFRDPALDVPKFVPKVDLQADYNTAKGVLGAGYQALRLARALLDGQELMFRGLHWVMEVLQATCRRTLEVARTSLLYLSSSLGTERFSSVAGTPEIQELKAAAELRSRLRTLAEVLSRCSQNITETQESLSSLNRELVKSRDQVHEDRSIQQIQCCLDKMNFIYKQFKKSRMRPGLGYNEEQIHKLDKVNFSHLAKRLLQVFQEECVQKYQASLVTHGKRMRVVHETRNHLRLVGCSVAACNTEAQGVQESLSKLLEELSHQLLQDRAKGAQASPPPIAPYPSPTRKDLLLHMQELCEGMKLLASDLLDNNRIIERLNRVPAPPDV
MAPK9 (human), sequence (P45984 whole entry, looked up): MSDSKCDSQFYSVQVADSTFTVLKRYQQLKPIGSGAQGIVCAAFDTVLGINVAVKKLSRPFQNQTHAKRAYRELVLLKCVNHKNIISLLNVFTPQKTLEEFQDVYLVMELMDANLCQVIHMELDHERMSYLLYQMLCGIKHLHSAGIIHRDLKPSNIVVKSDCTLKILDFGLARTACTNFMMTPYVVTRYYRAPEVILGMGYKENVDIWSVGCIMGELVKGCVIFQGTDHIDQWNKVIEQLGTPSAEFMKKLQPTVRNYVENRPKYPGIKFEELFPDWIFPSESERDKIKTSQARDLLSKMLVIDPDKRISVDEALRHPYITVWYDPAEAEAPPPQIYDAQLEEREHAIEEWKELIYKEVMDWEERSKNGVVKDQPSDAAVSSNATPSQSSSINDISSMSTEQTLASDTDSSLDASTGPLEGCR
INSR (human), sequence (P06213 whole entry, looked up): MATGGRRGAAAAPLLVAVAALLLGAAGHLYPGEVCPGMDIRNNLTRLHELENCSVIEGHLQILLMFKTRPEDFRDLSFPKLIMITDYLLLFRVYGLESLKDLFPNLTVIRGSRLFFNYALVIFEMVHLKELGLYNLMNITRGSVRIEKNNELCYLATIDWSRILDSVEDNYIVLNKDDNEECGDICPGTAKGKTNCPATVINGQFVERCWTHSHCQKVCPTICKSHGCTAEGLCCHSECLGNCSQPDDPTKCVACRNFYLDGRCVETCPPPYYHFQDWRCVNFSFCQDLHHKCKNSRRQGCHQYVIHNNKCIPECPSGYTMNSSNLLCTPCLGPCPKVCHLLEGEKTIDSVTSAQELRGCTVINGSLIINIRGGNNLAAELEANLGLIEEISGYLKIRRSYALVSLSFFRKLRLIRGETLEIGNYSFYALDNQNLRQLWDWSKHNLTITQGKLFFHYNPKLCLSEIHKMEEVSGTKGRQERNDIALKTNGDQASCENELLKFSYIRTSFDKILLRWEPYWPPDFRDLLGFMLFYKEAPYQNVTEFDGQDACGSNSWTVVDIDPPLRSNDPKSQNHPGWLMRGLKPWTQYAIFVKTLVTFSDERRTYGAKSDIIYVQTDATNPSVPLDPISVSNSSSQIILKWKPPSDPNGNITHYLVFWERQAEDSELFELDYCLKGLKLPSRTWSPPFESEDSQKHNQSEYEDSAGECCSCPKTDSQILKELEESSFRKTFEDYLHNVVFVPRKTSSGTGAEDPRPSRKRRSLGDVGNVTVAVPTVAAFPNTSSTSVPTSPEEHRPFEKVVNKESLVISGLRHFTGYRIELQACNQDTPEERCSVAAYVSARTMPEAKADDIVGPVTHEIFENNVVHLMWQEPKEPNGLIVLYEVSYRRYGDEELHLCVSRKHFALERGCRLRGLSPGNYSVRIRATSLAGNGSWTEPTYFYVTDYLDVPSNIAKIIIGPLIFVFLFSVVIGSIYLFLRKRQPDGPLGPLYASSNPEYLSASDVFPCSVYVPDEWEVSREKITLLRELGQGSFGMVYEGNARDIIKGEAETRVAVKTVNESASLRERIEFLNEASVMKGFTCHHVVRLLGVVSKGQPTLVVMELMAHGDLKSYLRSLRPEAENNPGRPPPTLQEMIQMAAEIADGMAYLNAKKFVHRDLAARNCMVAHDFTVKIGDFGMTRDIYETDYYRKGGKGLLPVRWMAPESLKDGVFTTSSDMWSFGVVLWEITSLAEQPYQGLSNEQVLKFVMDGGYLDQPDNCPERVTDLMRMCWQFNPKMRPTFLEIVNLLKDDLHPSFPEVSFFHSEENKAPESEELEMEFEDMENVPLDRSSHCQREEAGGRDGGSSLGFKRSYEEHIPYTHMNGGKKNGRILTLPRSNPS

residual activity ([1]; compound 0.1 µM): 120%
residual activity ([1]; compound 1.0 µM): 121%
residual activity ([1]; compound 10.0 µM): 102%
residual activity ([2]; compound 0.1 µM): 74%
residual activity ([2]; compound 1.0 µM): 19.5%
residual activity ([2]; compound 10.0 µM): 13.7%
residual activity ([3]; compound 0.1 µM): 111%
residual activity ([3]; compound 1.0 µM): 106%
residual activity ([3]; compound 10.0 µM): 66.9%
residual activity ([4]; compound 0.1 µM): 96.6%
residual activity ([4]; compound 1.0 µM): 29.5%
residual activity ([4]; compound 10.0 µM): 7.66%
residual activity ([5]; compound 0.1 µM): 106%
residual activity ([5]; compound 1.0 µM): 96.6%
residual activity ([5]; compound 10.0 µM): 80.1%
residual activity ([6]; compound 0.1 µM): 86.1%
residual activity ([6]; compound 1.0 µM): 81.6%
residual activity ([6]; compound 10.0 µM): 18%
residual activity ([7]; compound 0.1 µM): 131%
residual activity ([7]; compound 1.0 µM): 116%
residual activity ([7]; compound 10.0 µM): 96.8%
residual activity ([8]; compound 0.1 µM): 118%
residual activity ([8]; compound 1.0 µM): 158%
residual activity ([8]; compound 10.0 µM): 133%
residual activity ([9]; compound 0.1 µM): 127%
residual activity ([9]; compound 1.0 µM): 111%
residual activity ([9]; compound 10.0 µM): 108%
residual activity ([10]; compound 0.1 µM): 74.9%
residual activity ([10]; compound 1.0 µM): 16.6%
residual activity ([10]; compound 10.0 µM): 9.04%
residual activity ([12]; compound 0.1 µM): 90.8%
residual activity ([12]; compound 1.0 µM): 21.8%
residual activity ([12]; compound 10.0 µM): 4.89%
residual activity ([13]; compound 0.1 µM): 110%
residual activity ([13]; compound 1.0 µM): 122%
residual activity ([13]; compound 10.0 µM): 113%
residual activity ([14]; compound 0.1 µM): 105%
residual activity ([14]; compound 1.0 µM): 97.4%
residual activity ([14]; compound 10.0 µM): 92.2%
residual activity ([15]; compound 0.1 µM): 116%
residual activity ([15]; compound 1.0 µM): 104%
residual activity ([15]; compound 10.0 µM): 88.7%
residual activity ([16]; compound 0.1 µM): 95%
residual activity ([16]; compound 1.0 µM): 78%
residual activity ([16]; compound 10.0 µM): 32.1%
residual activity ([17]; compound 0.1 µM): 109%
residual activity ([17]; compound 1.0 µM): 89.4%
residual activity ([17]; compound 10.0 µM): 76.7%
residual activity ([18]; compound 0.1 µM): 112%
residual activity ([18]; compound 1.0 µM): 107%
residual activity ([18]; compound 10.0 µM): 93.4%
residual activity ([19]; compound 0.1 µM): 104%
residual activity ([19]; compound 1.0 µM): 90.4%
residual activity ([19]; compound 10.0 µM): 94%
residual activity ([20]; compound 0.1 µM): 102%
residual activity ([20]; compound 1.0 µM): 112%
residual activity ([20]; compound 10.0 µM): 102%
residual activity ([21]; compound 0.1 µM): 100%
residual activity ([21]; compound 1.0 µM): 93.4%
residual activity ([21]; compound 10.0 µM): 76.2%
residual activity ([22]; compound 0.1 µM): 99.4%
residual activity ([22]; compound 1.0 µM): 96%
residual activity ([22]; compound 10.0 µM): 92.7%
residual activity ([23]; compound 0.1 µM): 107%
residual activity ([23]; compound 1.0 µM): 84.3%
residual activity ([23]; compound 10.0 µM): 37.9%
residual activity ([24]; compound 0.1 µM): 81.2%
residual activity ([24]; compound 1.0 µM): 45.8%
residual activity ([24]; compound 10.0 µM): 21.4%
residual activity ([25]; compound 0.1 µM): 103%
residual activity ([25]; compound 1.0 µM): 90.7%
residual activity ([25]; compound 10.0 µM): 99.2%
residual activity ([26]; compound 0.1 µM): 103%
residual activity ([26]; compound 1.0 µM): 47.1%
residual activity ([26]; compound 10.0 µM): 11.5%
residual activity ([27]; compound 0.1 µM): 98.9%
residual activity ([27]; compound 1.0 µM): 67.3%
residual activity ([27]; compound 10.0 µM): 26.9%
residual activity ([28]; compound 0.1 µM): 92.4%
residual activity ([28]; compound 1.0 µM): 89.5%
residual activity ([28]; compound 10.0 µM): 59.9%
Compound: CCN1CCN(Cc2ccc(NC(=O)c3ccc(C)c(Oc4ccnc5[nH]ccc45)c3)cc2C(F)(F)F)CC1
residual activity ([11]; compound 0.1 µM): 106%
residual activity ([11]; compound 10.0 µM): 44.6%
